target: CXCR3 (Macaca fascicularis, UniProt A0A2K5UV19); experiment: functional cellular assay measuring calcium flux in CXCR3 transfected cells (block of CXCR3/IP-10 interaction); format: cell-based, Cyno; conditions: IP-10 induced intracellular calcium flux; Cyno-CHO cells stably expressing recombinant CXCR3 and G-alpha-16; IP-10 at EC80; read-out: IC50
Summary of the method: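 Inhibition of IP-10-induced calcium flux at 10 microM final compound, 15 min room-temperature preincubation, with IP-10 at EC80. Cells: CHO stably transfected with cynomolgus CXCR3 plus G-alpha-16, dye-loaded (Ca-4, 2 mM probenecid, HBSS/HEPES pH 7.4) 1 h at 37° C.; fluorescence ex 480/em 540 nm.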

Chain of CXCR3 (A0A2K5UV19 entry or part of it): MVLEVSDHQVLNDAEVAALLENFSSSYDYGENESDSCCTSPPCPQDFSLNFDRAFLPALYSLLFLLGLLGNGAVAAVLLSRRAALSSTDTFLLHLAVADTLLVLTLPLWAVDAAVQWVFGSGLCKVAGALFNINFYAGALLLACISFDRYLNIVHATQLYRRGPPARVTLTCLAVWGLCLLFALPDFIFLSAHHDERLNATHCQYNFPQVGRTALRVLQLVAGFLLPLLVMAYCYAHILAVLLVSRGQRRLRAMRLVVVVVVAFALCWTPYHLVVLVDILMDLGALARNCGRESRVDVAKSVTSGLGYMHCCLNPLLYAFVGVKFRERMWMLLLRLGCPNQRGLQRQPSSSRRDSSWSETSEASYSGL

IC50 [µM] | Compound
0.31 | CC1CN(c2ccc(C(F)(F)F)cc2-c2cnc(S(C)(=O)=O)nc2)CCN1C(=O)CN1CCCCC1=O (centres unmarked) [1-[2-(2-methyl-4-{2-[2-(methylsulfonyl)pyrimidin-5-yl]-4-(trifluoromethyl)phenyl}piperazin-1-yl)-2-oxoethyl]piperidin-2-one]
0.02 | CC1CN(c2ccc(C(F)(F)F)cc2-c2cnc(S(C)(=O)=O)nc2)CCN1C(=O)Cn1c(=O)[nH]c2ccccc21 (centres unmarked) [1-[2-(2-methyl-4-{2-[2-(methylsulfonyl)pyrimidin-5-yl]-4-(trifluoromethyl)phenyl}piperazin-1-yl)-2-oxoethyl]-1,3-dihydro-2H-benzimidazol-2-one]
0.009 | CNC(=O)C1CCN(c2ncc(-c3ccccc3N3CCN(C(=O)Cn4nc(C)cc4C)CC3)cn2)CC1 [1-[5-(2-{4-[2-(3,5-Dimethyl-pyrazol-1-yl)-acetyl]-piperazin-1-yl}-phenyl)-pyrimidin-2-yl]-piperidine-4-carboxylic acid methylamide]
0.014 | CN1CCN(c2ncc(-c3cc(F)ccc3N3CCN(C(=O)Cn4c(=O)[nH]c5ccccc54)CC3)cn2)CC1 [1-[2-(4-{4-fluoro-2-[2-(4-methylpiperazin-1-yl)pyrimidin-5-yl]phenyl}piperazin-1-yl)-2-oxoethyl]-1,3-dihydro-2H-benzimidazol-2-one]
0.01 | C[C@@H]1CN(c2ncc(-c3ccccc3N3CCN(C(=O)Cn4ccc5cccnc54)CC3)cn2)C[C@H](C)O1 [1-(4-{2-[2-((2R,6S)-2,6-Dimethyl-morpholin-4-yl)-pyrimidin-5-yl]-phenyl}-piperazin-1-yl)-2-pyrrolo[2,3-b]pyridin-1-yl-ethanone]
0.009 | CC1CN(c2ccccc2-c2cnc(N3CCC(O)CC3)nc2)CCN1C(=O)Cn1ccc2cccnc21 (centres unmarked) [1-(4-{2-[2-(4-hydroxypiperidin-1-yl)pyrimidin-5-yl]phenyl}-2-methylpiperazin-1-yl)-2-(1H-pyrrolo[2,3-b]pyridin-1-yl)ethanone]
0.012 | C[C@H]1CN(c2ccc(F)cc2C(=O)Nc2nc3c(s2)CN(C)CC3)CCN1C(=O)Cn1c(=O)[nH]c2ccccc21 [5-fluoro-2-{(3S)-3-methyl-4-[(2-oxo-2,3-dihydro-1H-benzimidazol-1-yl)acetyl]piperazin-1-yl}-N-(5-methyl-4,5,6,7-tetrahydro[1,3]thiazolo[5,4-c]pyridin-2-yl)benzamide]
0.035 | O=C(CNc1nccs1)N1CCN(c2ccccc2-c2cnc(N3CCOCC3)nc2)CC1 [1-{4-[2-(2-Morpholin-4-yl-pyrimidin-5-yl)-phenyl]-piperazin-1-yl}-2-(thiazol-2-ylamino)-ethanone]
0.008 | CC1CN(c2ccccc2-c2cnc(N3CCC(O)CC3)nc2)CCN1C(=O)Cn1c(=O)[nH]c2ccccc21 (centres unmarked) [1-[2-(4-{2-[2-(4-hydroxypiperidin-1-yl)pyrimidin-5-yl]phenyl}-2-methylpiperazin-1-yl)-2-oxoethyl]-1,3-dihydro-2H-benzimidazol-2-one]
0.009 | CC1CN(c2ccc(C(F)(F)F)cc2-c2cnc(N3CCC(O)CC3)nc2)CCN1C(=O)CN1Cc2ccccc2C1=O (centres unmarked) [2-[2-(4-{2-[2-(4-hydroxypiperidin-1-yl)pyrimidin-5-yl]-4-(trifluoromethyl)phenyl}-2-methylpiperazin-1-yl)-2-oxoethyl]-2,3-dihydro-1H-isoindol-1-one]
0.008 | O=C(Cn1cnc2cccnc21)N1CCN(c2ccc(F)cc2-c2cnc(N3CCC(O)CC3)nc2)CC1 [1-(4-{4-fluoro-2-[2-(4-hydroxypiperidin-1-yl)pyrimidin-5-yl]phenyl}piperazin-1-yl)-2-(3H-imidazo[4,5-b]pyridin-3-yl)ethanone]
0.013 | CC1CN(c2ccc(F)cc2-c2cnc(N3CCC(S(C)(=O)=O)CC3)nc2)CCN1C(=O)Cn1cnc2cccnc21 (centres unmarked) [1-[4-(4-fluoro-2-{2-[4-(methylsulfonyl)piperidin-1-yl]pyrimidin-5-yl}phenyl)-2-methylpiperazin-1-yl]-2-(3H-imidazo[4,5-b]pyridin-3-yl)ethanone]
0.026 | CN1CCN(c2ncc(-c3cc(F)ccc3N3CCN(C(=O)CN4Cc5ccccc5C4=O)CC3)cn2)CC1 [2-[2-(4-{4-fluoro-2-[2-(4-methylpiperazin-1-yl)pyrimidin-5-yl]phenyl}piperazin-1-yl)-2-oxoethyl]-2,3-dihydro-1H-isoindol-1-one]
0.008 | CS(=O)(=O)C1CCN(c2ncc(-c3cc(F)ccc3N3CCN(C(=O)Cn4ccc5ccncc54)CC3)cn2)CC1 [1-[4-(4-fluoro-2-{2-[4-(methylsulfonyl)piperidin-1-yl]pyrimidin-5-yl}phenyl)piperazin-1-yl]-2-(1H-pyrrolo[2,3-c]pyridin-1-yl)ethanone]
0.044 | COc1ncc(-c2ccccc2N2CCN(C(=O)Cn3ccc4ccccc43)CC2)cn1 [2-Indol-1-yl-1-{4-[2-(2-methoxy-pyrimidin-5-yl)-phenyl]-piperazin-1-yl}-ethanone]
0.006 | Cc1cc(C)n(CC(=O)N2CCN(c3ccccc3-c3cnc(N4CCC(S(C)(=O)=O)CC4)nc3)CC2)n1 [2-(3,5-Dimethyl-pyrazol-1-yl)-1-(4-{2-[2-(4-methanesulfonyl-piperidin-1-yl)-pyrimidin-5-yl]-phenyl}-piperazin-1-yl)-ethanone]
0.014 | CC1CN(c2ccccc2-c2cnc(N3CCC(S(C)(=O)=O)CC3)nc2)CCN1C(=O)Cn1cnc2cccnc21 (centres unmarked) [2-(3H-imidazo[4,5-b]pyridin-3-yl)-1-[2-methyl-4-(2-{2-[4-(methylsulfonyl)piperidin-1-yl]pyrimidin-5-yl}phenyl)piperazin-1-yl]ethanone]
0.011 | Cc1cc(C)n(CC(=O)N2CCN(c3ccccc3-c3cnc(N4CCCOCC4)nc3)CC2)n1 [2-(3,5-Dimethyl-pyrazol-1-yl)-1-{4-[2-(2-[1,4]oxazepan-4-yl-pyrimidin-5-yl)-phenyl]-piperazin-1-yl}-ethanone]
0.004 | Cc1cc(C)n(CC(=O)N2CCN(c3ccccc3-c3cnc(N4CC[C@@H](N(C)C)C4)nc3)CC2)n1 [1-(4-{2-[2-((R)-3-Dimethylamino-pyrrolidin-1-yl)-pyrimidin-5-yl]-phenyl}-piperazin-1-yl)-2-(3,5-dimethyl-pyrazol-1-yl)-ethanone]

The remaining lines, values behind:

Compound | IC50 [µM]
CCOc1ncc(-c2ccccc2N2CCN(C(=O)Cn3nc(C)cc3C)CC2)cn1 [2-(3,5-Dimethyl-pyrazol-1-yl)-1-{4-[2-(2-ethoxy-pyrimidin-5-yl)-phenyl]-piperazin-1-yl}-ethanone] | 0.018
Cc1ocnc1C(=O)N(C)CC(=O)N1CCN(c2ccc(F)cc2C(=O)Nc2nc3c(s2)CN(C)CC3)C[C@@H]1C [N-{2-[(2S)-4-{4-fluoro-2-[(5-methyl-4,5,6,7-tetrahydro[1,3]thiazolo[5,4-c]pyridin-2-yl)carbamoyl]phenyl}-2-methylpiperazin-1-yl]-2-oxoethyl}-N,5-dimethyl-1,3-oxazole-4-carboxamide] | 0.021
Cc1cc(C)n(CC(=O)N2CCN(c3ccc(C(F)(F)F)cc3-c3cnc(S(C)(=O)=O)nc3)CC2)n1 [2-(3,5-Dimethyl-pyrazol-1-yl)-1-{4-[2-(2-methanesulfonyl-pyrimidin-5-yl)-4-trifluoromethyl-phenyl]-piperazin-1-yl}-ethanone] | 0.054
CS(=O)(=O)C1CCN(c2ncc(-c3cc(F)ccc3N3CCN(C(=O)CN4CCCCC4=O)CC3)cn2)CC1 [1-{2-[4-(4-fluoro-2-{2-[4-(methylsulfonyl)piperidin-1-yl]pyrimidin-5-yl}phenyl)piperazin-1-yl]-2-oxoethyl}piperidin-2-one] | 0.015
Cc1cc(C)n(CC(=O)N2CCN(c3ccc(F)cc3-c3cnc(N4CCCC4)nc3)CC2)n1 [2-(3,5-dimethyl-1H-pyrazol-1-yl)-1-(4-{4-fluoro-2-[2-(pyrrolidin-1-yl)pyrimidin-5-yl]phenyl}piperazin-1-yl)ethanone] | 0.016
O=C(Cn1ccc2cccnc21)N1CCN(c2ccc(C(F)(F)F)cc2-c2cnc(N3CCOCC3)nc2)CC1 [1-{4-[2-(2-Morpholin-4-yl-pyrimidin-5-yl)-4-trifluoromethyl-phenyl]-piperazin-1-yl}-2-pyrrolo[2,3-b]pyridin-1-yl-ethanone] | 0.015
CSc1ncc(-c2cc(Cl)ccc2N2CCN(C(=O)Cn3nc(C)cc3C)CC2)cn1 [1-{4-[4-Chloro-2-(2-methylsulfanyl-pyrimidin-5-yl)-phenyl]-piperazin-1-yl}-2-(3,5-dimethyl-pyrazol-1-yl)-ethanone] | 0.007
CSc1ncc(-c2ccccc2N2CCN(C(=O)Cn3nc(C)cc3C)CC2)cn1 [2-(3,5-Dimethyl-pyrazol-1-yl)-1-{4-[2-(2-methylsulfanyl-pyrimidin-5-yl)-phenyl]-piperazin-1-yl}-ethanone] | 0.01
CSc1ncc(-c2cc(C(F)(F)F)ccc2N2CCN(C(=O)Cn3nc(C)cc3C)CC2)cn1 [2-(3,5-Dimethyl-pyrazol-1-yl)-1-{4-[2-(2-methylsulfanyl-pyrimidin-5-yl)-4-trifluoromethyl-phenyl]-piperazin-1-yl}-ethanone] | 0.005
COc1ncc(-c2cc(C#N)ccc2N2CCN(C(=O)Cn3ccc4cccnc43)CC2)cn1 [3-(2-Methoxy-pyrimidin-5-yl)-4-[4-(2-pyrrolo[2,3-b]pyridin-1-yl-acetyl)-piperazin-1-yl]-benzonitrile] | 0.007
Cc1cc(C)n(CC(=O)N2CCN(c3ccccc3-c3cnc(C)nc3)CC2)n1 [2-(3,5-Dimethyl-pyrazol-1-yl)-1-{4-[2-(2-methyl-pyrimidin-5-yl)-phenyl]-piperazin-1-yl}-ethanone] | 0.067
COc1cc(NC(=O)c2cc(F)ccc2N2CCN(C(=O)CN3CCCCC3=O)[C@H](C)C2)ccn1 [5-fluoro-N-(2-methoxypyridin-4-yl)-2-{(3R)-3-methyl-4-[(2-oxopiperidin-1-yl)acetyl]piperazin-1-yl}benzamide] | 0.01
COc1ncc(-c2ccccc2N2CCN(C(=O)Cn3ccc4c(Cl)ncnc43)CC2)cn1 [2-(4-Chloro-pyrrolo[2,3-d]pyrimidin-7-yl)-1-{4-[2-(2-methoxy-pyrimidin-5-yl)-phenyl]-piperazin-1-yl}-ethanone] | 0.048
